≈ marks a conversion by molar mass, not a printed value. Read-outs that look alike come from different tables or passages of the source. Where a SMILES comes first, the peptide text is derived from it. The star is where a group is joined. Hydrocinnamoyl = O=C(CCc1ccccc1)*; X4 = O=C(/C=C/c1ccccc1)*; PhAc = O=C(Cc1ccccc1)*; Bz = O=C(c1ccccc1)*
Tests used:
[1] = test system: Enterococcus faecium ATCC 700221; assay type: cell-based
Method: (§1) Tests of the antibacterial activity were carried out as we just described. Briefly, for assays, the following strains of ESKAPE bacteria were chosen: Acinetobacter baumannii ATCC BAA-1605, Enterococcus faecium ATCC 700221, Klebsiella aerogenes ATCC 13048 (formerly Enterobacter aerogenes), Klebsiella pneumoniae ATCC 700603, and Pseudomonas aeruginosa ATCC 9027. Moreover, the reference strains of Staphylococcus aureus were used: S. aureus ATCC 25923, S. aureus ATCC 6538, S. aureus ATCC 33591 (MRSA), S. aureus ATCC 9144, and S. aureus ATCC 12598. Before experiments, all the strains were stored at −80 °C in Roti®-Store cryo vials (Carl Roth GmbH, Karlsruhe, Germany). To evaluate the activity of the compounds, bacteria were transferred into fresh Mueller–Hinton medium (Becton Dickinson, Warszawa, Poland) and incubated for 24 h at 37 °C. In the next step, bacterial inoculums were seeded on Mueller–Hinton agar plates (BioMaxima SA, Lublin, Poland) and incubated again for 24 h. The MIC values were determined using the broth microdilution method according to the Clinical and Laboratory Standards Institute Protocol. The initial inoculums of bacteria (0.5 × 10^5 colony forming units (CFU)/mL) prepared in Mueller–Hinton broth were exposed to the ranging concentrations of peptides (1–512 µg/mL). The experiments were conducted on 96-well microtiter plates, with a final volume of 100 µL. The inoculum densities were checked spectrophotometrically (Multiskan™ GO Microplate Spectrophotometer, Thermo Scientific, Waltham, MA, USA) at 600 nm. The results were read after incubation for 18 h at 37 °C. The MIC values were the lowest concentration at which a visible growth of microorganisms was inhibited. All experiments were conducted in triplicate. Moreover, positive (growth) and negative (sterility) controls were included.

[2] = test system: Klebsiella aerogenes ATCC 13048; assay type: cell-based
Method: as §1

[3] = test system: Klebsiella pneumoniae ATCC 700603; assay type: cell-based
Method: as §1

[4] = test system: Pseudomonas aeruginosa ATCC 9027; assay type: cell-based
Method: as §1

S. aureus ATCC 12598 = assay type: cell-based, Staphylococcus aureus
Method: as §1

S. aureus ATCC 25923 = assay type: cell-based, Staphylococcus aureus
Method: as §1

[5] = test system: S. aureus ATCC 33591 (MRSA); assay type: cell-based, Staphylococcus aureus
Method: as §1

S. aureus ATCC 6538 = assay type: cell-based, Staphylococcus aureus
Method: as §1

S. aureus ATCC 9144 = assay type: cell-based, Staphylococcus aureus
Method: as §1

[6] = test system: human red blood cells (hRBCs); experiment: Hemolysis assay; settings: 4% (v/v) erythrocytes in PBS, peptides 1–512 µg/mL, 1 h at 37 °C, hemoglobin at 540 nm
Method: To facilitate a comparison of hemolytic activity between the analogs, MHC5 values were determined. MHC5 is the minimum hemolytic concentration of the compounds that caused the 5% hemolysis of hRBCs.
Briefly, the fresh hRBCs with EDTA as anticoagulant were rinsed three times with PBS through centrifugation at 800× g for 10 min and resuspended in PBS. The serial dilution of peptides (1–512 µg/mL) was prepared in PBS on 96-well plates. Then, the stock RBCs solution was added to the plates to reach a final volume of 100 µL with a 4% concentration of erythrocytes (v/v). The control wells for 0 (RBCs in PBS) and 100% (RBCs in 1% Triton-X 100) hemolysis were also prepared. Then, the plates were incubated for 1 h at 37 °C and centrifuged at 800× g for 10 min at 4 °C (Sorvall ST 16R Centrifuge, Thermo Scientific, Waltham, MA, USA). After centrifugation, the supernatant was carefully transferred to new microtiter plates and the release of hemoglobin was measured at 540 nm (Multiskan™ GO Microplate Spectrophotometer, Thermo Scientific, Waltham, MA, USA). The percentage of hemolysis was calculated based on wells with 100% hemolysis.

[7] = Mueller–Hinton broth, 0.5 × 10^5 CFU/mL, peptides 1–512 µg/mL, 18 h at 37 °C, triplicate
[8] = MRSA, Mueller–Hinton broth, 0.5 × 10^5 CFU/mL, peptides 1–512 µg/mL, 18 h at 37 °C, triplicate
[9] = 100% = 1% Triton-X 100, ≥ means less than 5% hemolysis up to 512 µg/mL

Row | Compound | MIC E. faecium ([1]; ATCC 700221, 18 h) | MIC K. aerogenes ([2]; ATCC 13048, 18 h) | MIC K. pneumoniae ([3]; ATCC 700603, 18 h) | MIC P. aeruginosa ([4]; ATCC 9027, 18 h) | MIC S. aureus 12598 (S. aureus ATCC 12598; ATCC 12598, 18 h) | MIC S. aureus 25923 (S. aureus ATCC 25923; ATCC 25923, 18 h) | MIC S. aureus 33591 ([5]; ATCC 33591, 18 h) | MIC S. aureus 6538 (S. aureus ATCC 6538; ATCC 6538, 18 h) | MIC S. aureus 9144 (S. aureus ATCC 9144; ATCC 9144, 18 h) | MIC A. baumannii (18 h) | MIC E. faecium [1, 7] | MIC K. aerogenes [2, 7] | MIC K. pneumoniae [3, 7] | MIC P. aeruginosa [4, 7] | MIC S. aureus 12598 (S. aureus ATCC 12598; [7]) | MIC S. aureus 25923 (S. aureus ATCC 25923; [7]) | MIC S. aureus 33591 [5, 8] | MIC S. aureus 6538 (S. aureus ATCC 6538; [7]) | MIC S. aureus 9144 (S. aureus ATCC 9144; [7]) | MHC5 (minimum hemolytic concentration causing 5% hemolysis of hRBCs) [6, 9] | also measured
1 | CC[C@H](C)[C@H](NC(=O)[C@H](CCCNC(=N)N)NC(=O)[C@H](CCC(N)=O)NC(=O)[C@@H](NC(=O)[C@@H](NC(=O)[C@H](CCCNC(=N)N)NC(=O)[C@H](CCCCN)NC(=O)/C=C/c1ccccc1)[C@@H](C)CC)C(C)C)C(=O)N[C@@H](CCCCN)C(=O)N[C@@H](CC(=O)O)C(=O)N[C@@H](Cc1ccccc1)C(=O)N[C@@H](CC(C)C)C(=O)N[C@@H](CCCNC(=N)N)C(N)=O [XIX, trans-cinnamic acid-KR12-NH2] (X4-KRIVQRIKDFLR-NH2) | 4 µg/mL (≈ 2.35 µM) | 16 µg/mL (≈ 9.41 µM) | 16 µg/mL (≈ 9.41 µM) | 32 µg/mL (≈ 18.8 µM) | 16 µg/mL (≈ 9.41 µM) | 16 µg/mL (≈ 9.41 µM) | 8 µg/mL (≈ 4.7 µM) | 16 µg/mL (≈ 9.41 µM) | 4 µg/mL (≈ 2.35 µM) | 8 µg/mL (≈ 4.7 µM) | – | – | – | – | – | – | – | – | – | – | MHC5 (minimum hemolytic concentration causing 5% hemolysis of hRBCs) ([6]; fresh batch of blood (footnote a)): 128 ^a µg/mL
2 | CC[C@H](C)[C@H](NC(=O)[C@H](CCCNC(=N)N)NC(=O)[C@H](CCC(N)=O)NC(=O)[C@@H](NC(=O)[C@@H](NC(=O)[C@H](CCCNC(=N)N)NC(=O)[C@H](CCCCN)NC(=O)c1ccccc1)[C@@H](C)CC)C(C)C)C(=O)N[C@@H](CCCCN)C(=O)N[C@@H](CC(=O)O)C(=O)N[C@@H](Cc1ccccc1)C(=O)N[C@@H](CC(C)C)C(=O)N[C@@H](CCCNC(=N)N)C(N)=O [XV, Benzoic acid-KR12-NH2] (Bz-KRIVQRIKDFLR-NH2) | – | – | – | – | – | – | – | – | – | – | 8 µg/mL (≈ 4.78 µM) | 64 µg/mL (≈ 38.2 µM) | 64 µg/mL (≈ 38.2 µM) | 128 µg/mL (≈ 76.4 µM) | 32 µg/mL (≈ 19.1 µM) | 64 µg/mL (≈ 38.2 µM) | 64 µg/mL (≈ 38.2 µM) | 8 µg/mL (≈ 4.78 µM) | 32 µg/mL (≈ 19.1 µM) | ≥512 µg/mL | MIC A. baumannii [7]: 32 µg/mL (≈ 19.1 µM)
3 | CC[C@H](C)[C@H](NC(=O)[C@H](CCCNC(=N)N)NC(=O)[C@H](CCC(N)=O)NC(=O)[C@@H](NC(=O)[C@@H](NC(=O)[C@H](CCCNC(=N)N)NC(=O)[C@H](CCCCN)NC(=O)Cc1ccccc1)[C@@H](C)CC)C(C)C)C(=O)N[C@@H](CCCCN)C(=O)N[C@@H](CC(=O)O)C(=O)N[C@@H](Cc1ccccc1)C(=O)N[C@@H](CC(C)C)C(=O)N[C@@H](CCCNC(=N)N)C(N)=O [XVI, Phenylacetic acid-KR12-NH2] (PhAc-KRIVQRIKDFLR-NH2) | – | – | – | – | – | – | – | – | – | – | 8 µg/mL (≈ 4.74 µM) | 64 µg/mL (≈ 37.9 µM) | 64 µg/mL (≈ 37.9 µM) | 128 µg/mL (≈ 75.8 µM) | 32 µg/mL (≈ 18.9 µM) | 128 µg/mL (≈ 75.8 µM) | 64 µg/mL (≈ 37.9 µM) | 16 µg/mL (≈ 9.47 µM) | 32 µg/mL (≈ 18.9 µM) | 256 µg/mL | MIC A. baumannii [7]: 32 µg/mL (≈ 18.9 µM)
4 | CC[C@H](C)[C@H](NC(=O)[C@H](CCCNC(=N)N)NC(=O)[C@H](CCC(N)=O)NC(=O)[C@@H](NC(=O)[C@@H](NC(=O)[C@H](CCCNC(=N)N)NC(=O)[C@H](CCCCN)NC(=O)CCc1ccccc1)[C@@H](C)CC)C(C)C)C(=O)N[C@@H](CCCCN)C(=O)N[C@@H](CC(=O)O)C(=O)N[C@@H](Cc1ccccc1)C(=O)N[C@@H](CC(C)C)C(=O)N[C@@H](CCCNC(=N)N)C(N)=O [XVII, 3-Phenylpropionic acid-KR12-NH2] (Hydrocinnamoyl-KRIVQRIKDFLR-NH2) | 4 µg/mL (≈ 2.35 µM) | 64 µg/mL (≈ 37.6 µM) | 32 µg/mL (≈ 18.8 µM) | 64 µg/mL (≈ 37.6 µM) | 16 µg/mL (≈ 9.39 µM) | 16 µg/mL (≈ 9.39 µM) | 32 µg/mL (≈ 18.8 µM) | 8 µg/mL (≈ 4.7 µM) | 16 µg/mL (≈ 9.39 µM) | 32 µg/mL (≈ 18.8 µM) | – | – | – | – | – | – | – | – | – | 256 µg/mL | –

Reference: article PMC10053710, “Influence of Lipidation Pattern of the KR12 Fragment of Peptide LL-37 on Its Antibacterial and Hemolytic Activities” (International Journal of Molecular Sciences, 2023)
